# Columns and labels:
# Colo205 cells = assay: FACS of PI-stained cells: cell cycle and rate of cell death (SubG1), Colo205; assay type: cell-based; conditions: for cell death induced by Cdc7 inhibitor on coadministration with Wee1 inhibitor MK-1775: Cdc7 inhibitor 0.1 μM, MK-1775 0.25, 0.5, 0.75 μM, FIG. 1 / FIG. 5; for cell death on coadministration with Chk1 inhibitor SCH900776: Cdc7 inhibitor 0.3 μM or 0.1 μM, SCH900776 3.3 μM, FIG. 9; for cell death on coadministration with Chk1 inhibitor UCN-01 / cell death on coadministration with Hsp90 inhibitor geldanamycin: Cdc7 inhibitor 0.1, 0.03 or 0.3 μM; for cell death on coadministration with Chk1 inhibitor UCN-01: UCN-01 333 nM, FIG. 10; for cell death on coadministration with Hsp90 inhibitor geldanamycin: geldanamycin 10 nM or 33 nM, FIG. 11
# Protocol: (§1) COLO205 (RCB2127, RIKEN BRC) was cultured in a 10-cm dish using an RPMI-1640 medium (Sigma-Aldrich Corp., R8758) supplemented with 10% FCS (Equitech-Bio, Inc.) and 5% penicillin-streptomycin (GIBCO/Thermo Fisher Scientific, Inc., 15140). The medium was removed from the cells in a well grown state (70 to 90% confluent), and the cells were dissociated from the dish by treatment with 2 mL of trypsin (TrypL Express, manufactured by GIBCO/Thermo Fisher Scientific, Inc.) and recovered into the same medium as above.
# (§2) The recovered cells of each line were seeded at 2.5×10^5 cells/ml/well to a 6-well plate (BD Falcon, catalog No. 353046). The cells were cultured overnight in a 5% CO2 incubator. On the next day, 500 μl of a medium supplemented with 1.5 μl of a stock solution having a 1000-fold concentration of each compound to be added was added to each well, […]
# (§3) After the reaction of the cells with the compound for 48 to 72 hours, the cells were dissociated from the well by treatment with trypsin (TrypL Express, manufactured by GIBCO/Thermo Fisher Scientific, Inc.) and washed with DPBS. Then, 1 ml of cold ethanol was added thereto, and the cells were stored at −30° C. until staining. The cells were washed with DPBS once before staining and left standing with a propidium iodide (PI) solution at room temperature for 30 minutes or longer in the dark. The cells stained with PI were studied for the cell cycle and the rate of cell death indicated by SubG1 using FACS.
# NHDF cells = assay: FACS of PI-stained cells: cell death, normal NHDF cells; assay type: cell-based; conditions: Cdc7 inhibitor 0.1 μM, MK-1775 0.25, 0.5, 0.75 μM, FIG. 2
# Protocol: NHDF cells (Cryo NHDF-NeoCC-2509, manufactured by Sanko Junyaku Co., Ltd.) were cultured in a 10-cm dish using a medium (Brett Kit FGM2, CLCC-3132). The medium was removed from the NHDF cells in a well grown state (70 to 90% confluent), and the cells were washed with 5 mL of HEPES-buffered saline in a subculture reagent set (CLCC-5034, manufactured by Sanko Junyaku Co., Ltd.).
# After removal of the HEPES-buffered saline, the whole dish was covered with 3 mL of a trypsin/EDTA solution included in the set. The cells were dissociated from the dish by giving a small impact on the side of the dish with taps of a hand. Then, 3 mL of a trypsin-neutralizing solution included in the set was added to the cells, which were then recovered.
# as §2
# After the reaction of the cells with the compound for 48 to 72 hours, the cells were dissociated from the well by treatment with trypsin (TrypL Express, manufactured by GIBCO/Thermo Fisher Scientific, Inc.) and washed with DPBS. […]
# [1] = test system: Panc-1 cells (pancreatic cancer cell line); assay: FACS of PI-stained cells: cell death, Panc-1 cells; assay type: cell-based; conditions: Cdc7 inhibitor 0.1 μM, MK-1775 0.5 and 0.75 μM, FIG. 3
# Protocol: as §1, with “Panc-1 (ATCC, CRL-1469)” for “COLO205 (RCB2127, RIKEN BRC)”, “a D-MEM” for “an RPMI-1640”, “D5796)” for “R8758)”
# as §2
# as §3, with “The cells stained with PI were studied for the cell cycle and the rate of cell death indicated by SubG1 using FACS.” left out
# MDA-MB-231 cells = assay: Cell growth inhibition (number of nuclei, Hoechst 33342) with BLISS score evaluation; assay type: cell-based, human; conditions: 72 hours, Cdc7 inhibitor 19.5 to 10000 nM, MK-1775 7.81 to 1000 nM, FIGS. 12-15
# Protocol: The BLISS scoring is a criterion often used in the evaluation of the synergistic effect of drugs used in combination (Borisy et al., Proc. Natl. Acad. Sci. USA. 100 (13): 7977-7982 (2003); and Buck et al., Mol. Cancer. Ther. 5 (11) (2006)). This BLISS scoring was used to analyze the effect of the Cdc7 inhibitor and the Wee1 inhibitor used in combination on the inhibition of cancer cell growth. […]
# After the addition of the compounds, the cells were incubated for 72 hours. […] Then, the number of nuclei (the number of cells) was measured using a cell image analyzer (ArrayScan VTI HCS Reader, Thermo Fischer Scientific, Inc.) (Ex/Em=350/461 nm).
# After 72 hours, the average number from the control wells was used as the number of untreated control cells (Gunt72), and the average number from the compound-treated wells was used as the number of compound-treated cells (G72). Wells in which the medium was merely replaced 24 hours after the cell inoculation were counted as an initial value and used as the initial number of cells (G0). […]
# Assuming that the first test compound and the second test compound each acted as a single agent (i.e., the rate of cell growth when the concentration of either of the compounds was 0), the theoretical BLISS independence (BLISSin) of each well can be calculated according to the following expression: BLISSin=G(First test compound)×G(Second test compound) […]
# [2] = Colo205, Cdc7 inhibitor 0.1 μM or 0.3 μM, MK-1775 0.5 μM, FIG. 8
compound,measurement,setting,value
"C=CCn1c(=O)c2cnc(Nc3ccc(N4CCN(C)CC4)cc3)nc2n1-c1cccc(C(C)(C)O)n1 [MK-1775, reference compound]",proportion of cells in the M-phase,Colo205 cells; MK-1775 0.1 to 1 μM,increased
"CC(C)OC(=O)C1=C(NN2CCOCC2)OC(=Cc2c[nH]c3ncccc23)C1=O [compound (I-A), isopropyl 5-[(1H-pyrrolo[2,3-b]pyridin-3-yl)methylene]-2-(morpholinoamino)-4-oxo-4,5-dihydrofuran-3-carboxylate]",cell death induced by Cdc7 inhibitor on coadministration with Wee1 inhibitor MK-1775,Colo205 cells; Colo205,synergistically increased
"CCOC(=O)C1=C(N2CCc3ccc(OC)cc3C2)O/C(=C\c2c[nH]c3ncccc23)C1=O [compound (I-B), ethyl 5-[(1H-pyrrolo[2,3-b]pyridin-3-yl)methylene]-2-(7-methoxy-3,4-dihydroisoquinolin-2(1H)-yl)-4-oxo-4,5-dihydrofuran-3-carboxylate]",cell death on coadministration with MK-1775,"Colo205 cells; Colo205, compound (I-B) 0.3 μM, FIG. 6",synergistically increased
"CC(C)OC(=O)C1=C(NN2CCN(CC(F)(F)F)CC2)O/C(=C\c2c[nH]c3ncccc23)C1=O [compound (I-C), isopropyl 5-[(1H-pyrrolo[2,3-b]pyridin-3-yl)methylene]-4-oxo-2-{[4-(2,2,2-trifluoroethyl)piperazinyl]amino}-4,5-dihydrofuran-3-carboxylate]",cell death on coadministration with MK-1775,"Colo205 cells; Colo205, compound (I-C) 0.1 μM or 0.3 μM, FIG. 7",synergistically increased
"CCOC(=O)C1=C(NN2CCN(CC(F)(F)F)CC2)O/C(=C\c2c[nH]c3ncccc23)C1=O [compound (I-D), ethyl 5-[(1H-pyrrolo[2,3-b]pyridin-3-yl)methylene]-4-oxo-2-{[4-(2,2,2-trifluoroethyl)piperazinyl]amino}-4,5-dihydrofuran-3-carboxylate]",cytotoxicity to normal cells on addition of MK-1775,NHDF cells,no increase
same,cell death induced by Cdc7 inhibitor on coadministration with MK-1775,[1],synergistically increased
same,cell death induced by Cdc7 inhibitor on coadministration with Wee1 inhibitor MK-1775,Colo205 cells; Colo205,synergistically increased
same,cell death on coadministration with Chk1 inhibitor SCH900776,Colo205 cells; Colo205,synergistically increased
same,cell death on coadministration with Chk1 inhibitor UCN-01,Colo205 cells; Colo205,synergistically increased
same,cell death on coadministration with Hsp90 inhibitor geldanamycin,Colo205 cells; Colo205,synergistically increased
same,inhibition of cancer cell growth in combined use with MK-1775 (BLISS score),MDA-MB-231 cells,synergistically inhibits
"O=C(OCC1CC1)C1=C(NN2CCOCC2)O/C(=C\c2c[nH]c3ncccc23)C1=O [compound (I-E), cyclopropylmethyl 5-[(1H-pyrrolo[2,3-b]pyridin-3-yl)methylene]-2-(morpholinoamino)-4-oxo-4,5-dihydrofuran-3-carboxylate]",cytotoxicity to normal cells on addition of MK-1775,NHDF cells,no increase
same,cell death induced by Cdc7 inhibitor on coadministration with MK-1775,[1],synergistically increased
same,cell death induced by Cdc7 inhibitor on coadministration with Wee1 inhibitor MK-1775,Colo205 cells; Colo205,synergistically increased
same,cell death on coadministration with Chk1 inhibitor SCH900776,Colo205 cells; Colo205,synergistically increased
same,cell death on coadministration with Chk1 inhibitor UCN-01,Colo205 cells; Colo205,synergistically increased
same,cell death on coadministration with Hsp90 inhibitor geldanamycin,Colo205 cells; Colo205,synergistically increased
same,"cell death on coadministration with MK-1775, varied composition","Colo205 cells; Colo205, compound (I-E):MK-1775 = 1:100 to 3:1 (ratio by μM), FIG. 4",sufficiently synergistically increased
same,inhibition of cancer cell growth in combined use with MK-1775 (BLISS score),MDA-MB-231 cells,synergistically inhibits
"O=C1NCCc2[nH]c(-c3ccncc3)cc21 [compound (I-F), 2-(pyridin-4-yl)-1,5,6,7-tetrahydro-4H-pyrrolo[3,2-c]pyridinone, reference compound]",cell death on coadministration with MK-1775,Colo205 cells; [2],synergistically increased
"NC(=O)c1cc(-c2ccnc(N)n2)[nH]c1-c1ccc(Cl)cc1Cl [compound (I-G), 5-(2-amino-pyrimidin-4-yl)-2-(2,4-dichloro-phenyl)-1H-pyrrole-3-carboxylic acid amide, reference compound]",cell death on coadministration with MK-1775,Colo205 cells; [2],synergistically increased

# Reference: patent US9974795B2, “Anticancer agent composition” (CARNA BIOSCIENCES, INC., priority 2014, dated 2018)
